Laboratory results from patent US7947664B2, “Angiotensin II receptor antagonists” (Merck Sharp & Dohme Corp., priority 2008, dated 2011).

Tested on: isolated rabbit thoracic aorta preparations
Assay: Vessel relaxation in isolated rabbit thoracic aorta preparations
Conditions: Oryctolagus cuniculus; in vitro, rabbit aortic rings precontracted with noradrenaline (1 μM), functional endothelium
Experimental: The ability of the compounds to induce vasorelaxation was tested in vitro in isolated rabbit thoracic aorta preparations (Wanstall J. C. et al., Br. J. Pharmacol., 134:463-472, 2001). Male New Zealand rabbits were anaesthetized with thiopental-Na (50 mg/kg, iv), sacrificed by exsanguinations and then the thorax was opened and the aorta dissected. Aortic ring preparations (4 mm in length) were set up in physiological salt solution (PSS) at 37° C. in small organ chambers (5 ml). The composition of PSS was (mM): NaCl 130, NaHCO3 14.9, KH2PO4 1.2, MgSO4 1.2, HEPES 10, CaCl2, ascorbic acid […] and glucose 1.1 (95% O2/5% CO2; pH 7.4). Each ring was mounted under 2 g passive tension. Isometric tension was recorded with a Grass transducer (Grass FT03) attached to a BIOPAC MP150 System. Preparations were allowed to equilibrate for 1 h, and then contracted submaximally with noradrenaline (NA, 1 μM) and, when the contraction was stable, acetylcholine (ACh, 10 μM) was added. A relaxant response to ACh indicated the presence of a functional endothelium. […] When a stable precontraction was reached, a cumulative concentration-response curve to either of the vasorelaxant agents was obtained in the presence of a functional endothelium. Each arterial ring was exposed to only one combination of inhibitor and vasorelaxant. […]
Examples 32 and 48 were evaluated for vessel relaxation.

| EC50 [µM] | SMILES |
| --- | --- |
| 46 | CCOc1nc2cccc(C(=O)OC(C)OC(=O)OCCC(C)CCO/N=[N+](\[O-])N(C)C(C)(C)C)c2n1Cc1ccc(-c2ccccc2-c2nnn[nH]2)cc1 (centres unmarked) [Example 32, O^2-(5-{[(1-{[(2-ethoxy-1-{[2′-(1H-tetrazol-5-yl)biphenyl-4-yl]methyl}-1H-benzimidazol-7-yl)carbonyl]oxy}ethoxy)carbonyl]oxy}-3-methylpentyl) 1-(N-tert-butylmethylamino)diazen-1-ium-1,2-diolate] |
| > 100 | CCOc1nc2cccc(C(=O)OC(C)OC(=O)O[C@H](C)CCCCO/N=[N+](\[O-])N(C)C(C)(C)C)c2n1Cc1ccc(-c2ccccc2-c2nnn[nH]2)cc1 (stereo partly drawn) [Example 48, O^2-[(5R)-5-{[(1-{[(2-ethoxy-1-{[2′-(1H-tetrazol-5-yl)biphenyl-4-yl]methyl}-1H-benzimidazol-7-yl)carbonyl]oxy}ethoxy)carbonyl]oxy}hexyl] 1-(N-tert-butylmethylamino)diazen-1-ium-1,2-diolate] |
